In patent US20070027175A1, “Antineoplastic activities of ellipticine and its derivatives” (priority 2005, published 2007):

What was measured:
RPMI 8226 cells = test: Drug resistance and cytotoxicity MTT assay, RPMI 8226; assay type: cell-based, human; details: Homo sapiens, 96 hours
Method: (§1) FIGS. 13A-13B show dose response of RPMI 8226 and 8226/Dox1V myeloma cells to EPED3 (FIG. 13A) or Dox (FIG. 13B). Cells were incubated for 96 hours with drug concentrations as indicated and analyzed by MTT assays; linear regression analysis was used to determine the IC50 for each drug (EPED3, FIG. 13A; Dox, FIG. 13B) and each cell line (RPMI8226, squares; 8226/Dox1V, circles). Data are presented as the mean of four independent experiments.
(§2) The 8226/Dox1V and its parental line, RPMI 8226, cells were plated in 96-well plates at 10,000 cells/well and incubated with serial dilutions of EPED3 or Dox, as previously described (Landowski et al., 1999). After 96 hours incubation at 37° C., MTT was added to each well at a final concentration of 20 μg/ml and incubated an additional 4 hours. Plates were centrifuged and the media replaced with 0.1 ml DMSO to solublize the formazan complex. Optical density was measured at 540 nm using a Bio-Tek microplate spectrophotometer. IC50 values were calculated by linear regression analysis (Origins® Software Technologies, Inc.) of the log-linear plot for percent survival versus log drug concentration.
In drug resistance studies, the efficacy of EPED3 with 8226/Dox1V cells and the parental line, RPMI 8226 cells was investigated. Both cell lines were treated with either EPED3 or Dox, and the MTT assays were used to assess cell growth. […]

8226/Dox1V cells = test: Drug resistance and cytotoxicity MTT assay, 8226/Dox1V; assay type: cell-based, human
Method: as §1
The 8226/Dox1V cell line was established by chronic exposure to Dox in presence of P-glycoprotein inhibitor, verapamil and was characterized by reduced expression and activity of topo II (Futscher et al., 1993).
as §2
In drug resistance studies, the efficacy of EPED3 with 8226/Dox1V cells and the parental line, RPMI 8226 cells was investigated. Both cell lines were treated with either EPED3 or Dox, and the MTT assays were used to assess cell growth. Linear regression analysis of 96-hour dose-response curves was used to compare cytotoxicity of EPED3 in 8226/Dox1V and RPMI 8226 cell lines.

[1] = tested on: 12 myeloma cell lines (Ark, BW288, CAG, Delta47, DF15, JJN3, kms11, L363, opm2, RPMI8226, U266 and XG1); test: Comparative study with existing anti-myeloma drugs (CellTiter-Glo); assay type: cell-based, human; details: for response of 12 myeloma cell lines: 0.2 μM, in 5 days
From the text: The results obtained from these controls are pooled together in the figure (●). The dose of each compound was set […].
Comparative study of NSC 338258 with existing anti-myeloma drugs Myeloma cell lines were exposed to NSC 338258 and existing anti myeloma drugs, Adriamycin® (Doxorubicin Hydrochloride) and Etoposide (VP-16-213) in ninety six well culture plates. The concentration of each compound was set […]. […] The cell growth was near zero in the following days (day 4 onwards; FIG. 6). It was also observed that 12 myeloma cell lines (Ark, BW288, CAG, Delta47, DF15, JJN3, kms11, L363, opm2, RPMI8226, U266 and XG1) responded to the same dosage (0.2 μM) of NSC 338258, VP-16-213 and Adriamycin in 5 days.

DNA strand breakage = details: Multon et al., 1989; cited from earlier work

Row | SMILES | IC50 (RPMI 8226 cells) [nM] | IC50 (8226/Dox1V cells; Homo sapiens, 8226/Dox1V, 96 hours) [nM] | resistance of 8226/Dox1V versus parental RPMI 8226 (8226/Dox1V cells; ratio of IC50, 96 hours) [fold] | response of 12 myeloma cell lines [1] | speed of response compared with EPED3 ([1]; myeloma cell lines (n=12), regardless of the concentration) | potency in DNA strand breakage, times less than m-AMSA (DNA strand breakage) [times]
1 | COc1cccc2c1C(=O)c1c(O)c3c(c(O)c1C2=O)C[C@@](O)(C(=O)CO)C[C@@H]3O[C@H]1C[C@H](N)[C@H](O)[C@H](C)O1 [Dox, Doxorubicin, reference compound] | 40 | 294 | 7.3 | responded | – | –
2 | COc1cc([C@@H]2c3cc4c(cc3[C@@H](O[C@@H]3O[C@@H]5CO[C@@H](C)O[C@H]5[C@H](O)[C@H]3O)[C@H]3COC(=O)[C@H]23)OCO4)cc(OC)c1O [VP-16-213, Etoposide] | – | – | – | responded | much more delayed response | –
3 | Cc1c2cc[n+](C)cc2c(C)c2c1[nH]c1ccc(O)cc12 [Celiptium] | – | – | – | – | – | 50
